In patent US9284333B2, “Fused pyrroledicarboxamides and their use as pharmaceuticals” (SANOFI, priority 2012, dated 2016):
pIC50: −log10 of the molar value.

Molecular target: Human TASK-1 channels (Homo sapiens (Human), UniProt O14649)
Experiment: Determination of the activity on the TASK-1 channel in Xenopus oocytes (two-microelectrode voltage clamp)
Type: cell-based
Details: for pIC50: human TASK-1 expressed in Xenopus oocytes, room temperature, read-out: IC50 value for TASK-1 inhibition; for inhibition at 5 µM: compound concentration 5 μM
Outline: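 Current during 500 ms pulses to 40 mV from a −90 mV hold was recorded in oocytes expressing human TASK-1 for two days after cRNA injection. Compounds were added cumulatively to the ND96 bath (pH 7.4, room temperature). IC50 came from dose-response fitting of inhibition relative to pre-compound current.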

Human TASK-1 channels, sequence (O14649 whole entry): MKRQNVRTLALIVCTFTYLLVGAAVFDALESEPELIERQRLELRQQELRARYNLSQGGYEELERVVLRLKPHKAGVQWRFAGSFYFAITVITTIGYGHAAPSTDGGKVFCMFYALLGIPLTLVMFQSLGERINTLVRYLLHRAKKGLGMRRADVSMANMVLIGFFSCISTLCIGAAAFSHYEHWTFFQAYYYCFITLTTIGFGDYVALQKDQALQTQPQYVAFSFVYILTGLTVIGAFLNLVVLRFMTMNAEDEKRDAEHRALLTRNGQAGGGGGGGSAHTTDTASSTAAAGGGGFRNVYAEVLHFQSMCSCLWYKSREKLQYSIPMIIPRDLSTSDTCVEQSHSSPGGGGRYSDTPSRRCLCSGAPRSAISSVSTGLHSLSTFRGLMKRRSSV

| SMILES | pIC50 | inhibition at 5 µM [%] |
| --- | --- | --- |
| C[C@@H](NC(=O)c1cc(C(=O)N[C@H](C)c2ccc(F)cc2)n2c1COCC2)c1ccc(F)cc1 [16dm, 3,4-Dihydro-1H-pyrrolo[2,1-c][1,4]oxazine-6,8-dicarboxylic acid bis-{[(R)-1-(4-fluoro-phenyl)-ethyl]-amide}] | 6.90 |  |
| C[C@@H](NC(=O)c1cc(C(=O)N[C@H](C)c2ccc(F)cc2)n2c1COCC2)c1ccccc1 [16dn, 3,4-Dihydro-1H-pyrrolo[2,1-c][1,4]oxazine-6,8-dicarboxylic acid 6-{[(R)-1-(4-fluoro-phenyl)-ethyl]-amide} 8-[((R)-1-phenyl-ethyl)-amide]] | 7.30 |  |
| C[C@@H](NC(=O)c1cc(C(=O)N[C@H](C)c2ccc(F)cc2)n2c1COCC2)c1cccc(F)c1 [16do, 3,4-Dihydro-1H-pyrrolo[2,1-c][1,4]oxazine-6,8-dicarboxylic acid 6-{[(R)-1-(4-fluoro-phenyl)-ethyl]-amide} 8-{[(R)-1-(3-fluoro-phenyl)-ethyl]-amide}] | 6.72 |  |
| C[C@@H](NC(=O)c1cc(C(=O)N[C@H](C)c2ccccc2F)c2n1CCOC2)c1ccc(F)cc1 [16dq, 3,4-Dihydro-1H-pyrrolo[2,1-c][1,4]oxazine-6,8-dicarboxylic acid 6-{[(R)-1-(4-fluoro-phenyl)-ethyl]-amide} 8-{[(R)-1-(2-fluoro-phenyl)-ethyl]-amide}] | 6.66 |  |
| C[C@@H](NC(=O)c1cc(C(=O)NCC(F)(F)F)c2n1CCOC2)c1ccc(F)cc1 [16dr, 3,4-Dihydro-1H-pyrrolo[2,1-c][1,4]oxazine-6,8-dicarboxylic acid 6-{[(R)-1-(4-fluoro-phenyl)-ethyl]-amide} 8-[(2,2,2-trifluoro-ethyl)-amide]] |  | 84 |
| C[C@@H](NC(=O)c1cc(C(=O)NCC2CC2)c2n1CCOC2)c1ccc(F)cc1 [16ds, 3,4-Dihydro-1H-pyrrolo[2,1-c][1,4]oxazine-6,8-dicarboxylic acid 8-cyclopropylmethyl-amide 6-{[(R)-1-(4-fluoro-phenyl)-ethyl]-amide}] |  | 89 |
| CC[C@@H](NC(=O)c1cc(C(=O)N[C@H](C)c2ccc(F)cc2)n2c1COCC2)c1cccnc1C(F)(F)F [16dt, 3,4-Dihydro-1H-pyrrolo[2,1-c][1,4]oxazine-6,8-dicarboxylic acid 6-{[(R)-1-(4-fluoro-phenyl)-ethyl]-amide} 8-{[(R)-1-(2-trifluoromethyl-pyridin-3-yl)-propyl]-amide}] | 6.00 |  |
| CC[C@@H](NC(=O)c1cc(C(=O)N[C@H](C)c2ccc(F)cc2)n2c1COCC2)c1ccc(OC)nc1 [16du] | 6.66 |  |
| CC[C@@H](NC(=O)c1cc(C(=O)N[C@H](C)c2ccc(F)cc2)n2c1COCC2)c1cnc(OC)cn1 [16dw, 3,4-Dihydro-1H-pyrrolo[2,1-c][1,4]oxazine-6,8-dicarboxylic acid 6-{[(R)-1-(4-fluoro-phenyl)-ethyl]-amide} 8-{[(R)-1-(5-methoxy-pyrazin-2-yl)-propyl]-amide}] | 7.32 |  |
| CC[C@@H](NC(=O)c1cc(C(=O)N[C@H](C)c2ccc(F)cc2)n2c1COCC2)c1ncccn1 [16dz, 3,4-Dihydro-1H-pyrrolo[2,1-c][1,4]oxazine-6,8-dicarboxylic acid 6-{[(R)-1-(4-fluoro-phenyl)-ethyl]-amide} 8-[((R)-1-pyrimidin-2-yl-propyl)-amide]] | 6.66 |  |
| CC(c1ncccn1)N(CC1CC1)C(=O)c1cc(C(=O)N[C@H](C)c2ccc(F)cc2)n2c1COCC2 (stereo partly drawn) [16ea, 3,4-Dihydro-1H-pyrrolo[2,1-c][1,4]oxazine-6,8-dicarboxylic acid 8-[cyclopropylmethyl-(1-pyrimidin-2-yl-ethyl)-amide] 6-{[(R)-1-(4-fluoro-phenyl)-ethyl]-amide}] |  | 72 |
| CC[C@@H](NC(=O)c1cc(C(=O)N[C@H](C)c2ccc(F)cc2)n2c1COCC2)c1ccc(C(F)(F)F)cc1 [16eb, 3,4-Dihydro-1H-pyrrolo[2,1-c][1,4]oxazine-6,8-dicarboxylic acid 6-{[(R)-1-(4-fluoro-phenyl)-ethyl]-amide} 8-{[(R)-1-(4-trifluoromethyl-phenyl)-propyl]-amide}] | 6.60 |  |
| CC[C@@H](NC(=O)c1cc(C(=O)N[C@H](C)c2ccc(F)cc2)n2c1COCC2)c1ccc(C#N)cc1 [16ec, 3,4-Dihydro-1H-pyrrolo[2,1][1,4]oxazine-6,8-dicarboxylic acid 8-{[(R)-1-(4-cyano-phenyl)-propyl]-amide} 6-{[(R)-1-(4-fluoro-phenyl)-ethyl]-amide}] | 6.22 |  |
| CC[C@@H](NC(=O)c1cc(C(=O)N[C@H](C)c2ccc(F)cc2)n2c1COCC2)c1ncc(C(F)(F)F)cn1 [16ed, 3,4-Dihydro-1H-pyrrolo[2,1-c][1,4]oxazine-6,8-dicarboxylic acid 6-{[(R)-1-(4-fluoro-phenyl)-ethyl]-amide} 8-{[(R)-1-(5-trifluoromethyl-pyrimidin-2-yl)-propyl]-amide}] | 6.52 |  |
| CC[C@H](NC(=O)c1cc(C(=O)N[C@H](C)c2ccc(F)cc2)n2c1COCC2)c1ncc(C(F)(F)F)cn1 [16ee, 3,4-Dihydro-1H-pyrrolo[2,1-c][1,4]oxazine-6,8-dicarboxylic acid 6-{[(R)-1-(4-fluoro-phenyl)-ethyl]-amide} 8-{[(S)-1-(5-trifluoromethyl-pyrimidin-2-yl)-propyl]-amide}] | 6.46 |  |
| CC[C@@H](NC(=O)c1cc(C(=O)N[C@@H](C)c2ccc(F)cc2)n2c1COCC2)c1ncccn1 [16ef, 3,4-Dihydro-1H-pyrrolo[2,1-c][1,4]oxazine-6,8-dicarboxylic acid 6-{[(S)-1-(4-fluoro-phenyl)-ethyl]-amide} 8-[((R)-1-pyrimidin-2-yl-propyl)-amide]] | 6.09 |  |
| CC[C@@H](NC(=O)c1cc(C(=O)N[C@H](C)c2ccc(F)cc2)n2c1COCC2)c1ccc(C(F)(F)F)cn1 [16eg, 3,4-Dihydro-1H-pyrrolo[2,1-c][1,4]oxazine-6,8-dicarboxylic acid 6-{[(R)-1-(4-fluoro-phenyl)-ethyl]-amide} 8-{[(R)-1-(5-trifluoromethyl-pyridin-2-yl)-propyl]-amide}] | 7.27 |  |
| CC[C@@H](NC(=O)c1cc(C(=O)N2CCOCC2)n2c1COCC2)c1ccccc1 [16eh, 6-(Morpholine-4-carbonyl)-3,4-dihydro-1H-pyrrolo[2,1-c][1,4]oxazine-8-carboxylic acid ((R)-1-phenyl-propyl)-amide] | 5.77 |  |
| CC[C@@H](NC(=O)c1cc(C(=O)N2CCC[C@H]2C)n2c1COCC2)c1ccccc1 [16ej, 6-((R)-2-Methyl-pyrrolidine-1-carbonyl)-3,4-dihydro-1H-pyrrolo[2,1-c][1,4]oxazine-8-carboxylic acid ((R)-1-phenyl-propyl)-amide] | 6.59 |  |
| CC[C@@H](NC(=O)c1cc(C(=O)N2CC[C@H](OC)C2)n2c1COCC2)c1ccccc1 [16ek, 6-((S)-3-Methoxy-pyrrolidine-1-carbonyl)-3,4-dihydro-1H-pyrrolo[2,1-c][1,4]oxazine-8-carboxylic acid ((R)-1-phenyl-propyl)-amide] | 6.25 |  |
| CC[C@@H](NC(=O)c1cc(C(=O)N2CCCC2C(C)C)n2c1COCC2)c1ccccc1 (stereo partly drawn) [16el, 6-(2-Isopropyl-pyrrolidine-1-carbonyl)-3,4-dihydro-1H-pyrrolo[2,1-c][1,4]oxazine-8-carboxylic acid ((R)-1-phenyl-propyl)-amide] | 6.42 |  |
| CC[C@@H](NC(=O)c1cc(C(=O)N2CCN(C)CC2c2ccccc2)n2c1COCC2)c1ccccc1 (stereo partly drawn) [16em, 6-(4-Methyl-2-phenyl-piperazine-1-carbonyl)-3,4-dihydro-1H-pyrrolo[2,1-c][1,4]oxazine-8-carboxylic acid ((R)-1-phenyl-propyl)-amide] | 6.22 |  |
| CC[C@@H](NC(=O)c1cc(C(=O)N2CCCC2COC(F)(F)F)n2c1COCC2)c1ccccc1 (stereo partly drawn) [16en, 6-(2-Trifluoromethoxymethyl-pyrrolidine-1-carbonyl)-3,4-dihydro-1H-pyrrolo[2,1-c][1,4]oxazine-8-carboxylic acid ((R)-1-phenyl-propyl)-amide] | 6.74 |  |
| CC[C@@H](NC(=O)c1cc(C(=O)N2CCC[C@@H]2COC)n2c1COCC2)c1ccccc1 [16eo, 6-((R)-2-Methoxymethyl-pyrrolidine-1-carbonyl)-3,4-dihydro-1H-pyrrolo[2,1-c][1,4]oxazine-8-carboxylic acid ((R)-1-phenyl-propyl)-amide] | 6.42 |  |
| CC[C@@H](NC(=O)c1cc(C(=O)N2[C@@H](COC)CC[C@@H]2COC)n2c1COCC2)c1ccccc1 [16ep, 6-((2R,5R)-2,5-Bis-methoxymethyl-pyrrolidine-1-carbonyl)-3,4-dihydro-1H-pyrrolo[2,1-c][1,4]oxazine-8-carboxylic acid ((R)-1-phenyl-propyl)-amide] | 6.09 |  |
| CC[C@@H](NC(=O)c1cc(C(=O)N2CCCC2c2cc(C)no2)n2c1COCC2)c1ccccc1 (stereo partly drawn) [16eq, 6-[2-(3-Methyl-isoxazol-5-yl)-pyrrolidine-1-carbonyl]-3,4-dihydro-1H-pyrrolo[2,1-c][1,4]oxazine-8-carboxylic acid ((R)-1-phenyl-propyl)-amide] | 6.32 |  |
| CC[C@@H](NC(=O)c1cc(C(=O)N2CCCC2c2c(C)noc2C)n2c1COCC2)c1ccccc1 (stereo partly drawn) [16er, 6-[2-(3,5-Dimethyl-isoxazol-4-yl)-pyrrolidine-1-carbonyl]-3,4-dihydro-1H-pyrrolo[2,1-c][1,4]oxazine-8-carboxylic acid ((R)-1-phenyl-propyl)-amide] | 6.49 |  |
| CCO[C@H]1CCN(C(=O)c2cc(C(=O)N[C@H](CC)c3ccccc3)c3n2CCOC3)C1 [16es, 6-((S)-3-Ethoxy-pyrrolidine-1-carbonyl)-3,4-dihydro-1H-pyrrolo[2,1-c][1,4]oxazine-8-carboxylic acid ((R)-1-phenyl-propyl)-amide] | 5.74 |  |
| CC[C@@H](NC(=O)c1cc(C(=O)N2CCC[C@@H]2C(O)C2CC2)n2c1COCC2)c1ccccc1 (stereo partly drawn) [16et, 6-[(R)-2-(Cyclopropyl-hydroxy-methyl)-pyrrolidine-1-carbonyl]-3,4-dihydro-1H-pyrrolo[2,1-c][1,4]oxazine-8-carboxylic acid ((R)-1-phenyl-propyl)-amide] | 5.89 |  |
